ChEMBL document CHEMBL5726293, “Substituted pyrimidine compounds” (2019)

Target: 3',5'-cyclic-AMP phosphodiesterase 4B (Homo sapiens, UniProt Q07343)
Experiment: cAMP HTRF Assay to Determine the Activity of hPDE4B1: The inhibiting effect of the compounds on the enzyme activity of human PDE4B1 was measured by the quantification of 5′-adenosine monophosphate (5′-AMP), which is formed from 3′,5′-cyclic adenosine monophosphate (cAMP). Human recombinant enzyme, expressed in Sf9 cells, and the HTRF (homogeneous time-resolved fluorescence) detection method were used in the assay.The test compound or water (control) was mixed with the human recombinant PDE4B1 enzyme (4.8 U) in a buffer consisting of 44.4 mM tris-HCl, 5.28 mM MgCl2, 2.64 mM DTT and 0.044% Tween 20 (pH 7.8). After adding the cAMP enzyme substrate (final concentration 40 nM), the mixture was incubated for 30 minutes at room temperature. Then a fluorescence acceptor (Dye2 marked with cAMP), a fluorescence donor (anti-cAMP antibody marked with a europium cryptate) and the non-specific phosphodiesterase inhibitor IBMX (3-isobutyl-1-methylxanthine; final concentration 1 mM) were added. After 60 min the fluorescence transfer, which correlates with the amount of remaining cAMP, was measured with a microplate reader (Rubystar, BMG) at λex=337 nm, λem=620 nm and λem=665 nm. The enzyme activity was calculated from the quotient formed from the measured signal at 665 nm and that at 620 nm. […]

Chain of 3',5'-cyclic-AMP phosphodiesterase 4B (Q07343 whole entry): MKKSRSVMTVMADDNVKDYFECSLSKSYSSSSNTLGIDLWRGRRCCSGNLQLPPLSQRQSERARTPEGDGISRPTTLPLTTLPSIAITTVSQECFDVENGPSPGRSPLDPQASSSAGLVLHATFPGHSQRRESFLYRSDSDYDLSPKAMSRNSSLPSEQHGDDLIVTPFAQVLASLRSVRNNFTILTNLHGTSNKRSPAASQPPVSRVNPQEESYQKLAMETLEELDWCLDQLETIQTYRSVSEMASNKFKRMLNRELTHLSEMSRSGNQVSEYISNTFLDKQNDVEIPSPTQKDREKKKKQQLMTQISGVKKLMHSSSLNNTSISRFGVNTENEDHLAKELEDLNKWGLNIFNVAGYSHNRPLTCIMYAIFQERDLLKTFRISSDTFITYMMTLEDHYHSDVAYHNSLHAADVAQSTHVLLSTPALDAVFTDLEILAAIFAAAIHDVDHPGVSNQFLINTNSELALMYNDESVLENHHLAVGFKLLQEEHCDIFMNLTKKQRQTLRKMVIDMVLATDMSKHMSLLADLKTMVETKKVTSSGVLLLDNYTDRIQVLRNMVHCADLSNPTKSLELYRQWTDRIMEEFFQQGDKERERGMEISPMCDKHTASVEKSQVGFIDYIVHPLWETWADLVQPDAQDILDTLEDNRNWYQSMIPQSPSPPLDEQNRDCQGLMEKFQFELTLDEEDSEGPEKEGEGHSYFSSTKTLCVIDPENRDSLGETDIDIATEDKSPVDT

| IC50 [nM] | Structure (SMILES) |
| --- | --- |
| < 100 | CCc1csc(-c2cnc(N3CC4(CC4)c4ccc(C(=O)N(C)CCO)cc43)nc2)n1 |
| < 100 | CNCCN(C)C(=O)c1ccc2c(c1)N(c1ncc(-c3ccccc3F)cn1)CC21CC1 |
